The source of these data is US9192680B2, “Pharmaceutical compounds” (APOSENSE LTD., priority 2010, dated 2015).

By MTD is commonly meant the highest dose tested that stayed within the study's limit of toxicity.

One data set has as its system A375-melanoma cells. Briefly: Cytotoxicity in cultured A375-melanoma cells (XTT cell viability). The class given is cell-based. The conditions noted are these: Homo sapiens, read-out: IC50 (drug concentration that inhibited 50% of the cell growth). The procedure:
Cells were grown in RPMI 1640 (Gibco, UK) supplemented with 10% FBS (Gibco, UK) 2 mM of L-glutamin (Gibco, UK), 20 mM HEPES buffer (Beit-Haemek, Israel), 100 units/ml of penicillin, and 100 μg/ml of streptomycin (Gibco, UK). Cells were cultured in humidified atmosphere containing 5% CO2 at 37° C. Medium was routinely changed twice a week, and cells were sub-cultured with 0.25% trypsin/EDTA (Beit-Haemek, Israel) when reaching 85% confluence.
ATT-11T was produced by Aptuit-Laurus (India). The compound was dissolved in DMSO. […] The cells were incubated for 24 hours at 37° C. with serial dilutions of ATT-11T (or CPT 11), dissolved in growing medium. Cell viability was then determined, using the XTT reagent (Beit-Haemek, Israel). At the end of the incubation period, tetrazolium dye was added, and formation of a colored product formazan was measured at 450 nm using a microplate reader (ELx800, Bio-Tek instruments Inc.). Cell viability vs. drug concentration was plotted, and data were fitted with a non-linear regression analysis using GraphPad prisma ver.5.0 software. […]
Background: Formazan colour is commonly taken as a measure of viable cells.

The subject of another data set is A375 melanoma tumors. The data set can be described thus: Xenograft model of melanoma: tumor regression, growth inhibition and growth delay. The settings on record: for Tumor volume inhibition (TVI): one week after the last dose; for tumor growth at day 30 after the last dose: 58 days after tumor cell inoculation; for growth inhibition: one week after last administration. The class given is in vivo, athymic nude mice. The procedure: Tumor-bearing mice, injected only with the vehicle solution served as controls.
ATT11-T (Aptuit-Luarus, India) was administered in a vehicle as described above. Tumor-bearing mice injected only with the vehicle solution served as controls. […] Tumor volume was evaluated as described above.
Drug-induced delay in tumor growth was assessed by two measures: (i). Tumor volume inhibition (TVI %) at one week after the last treatment in treated versus control tumors, which was calculated according to the Formula TVI (%)=(1-T/C)×100, where T and C are the tumor volume of the treated and control groups, respectively; and (ii). Tumor growth delay (TGD), assessed as the time period (days) of treatment-induced delay in tumor reaching a pre-determined volume of 3,500 mm^3, as compared to the vehicle-treated controls.

Data set [1] in a line: Adverse effects and body weight in A375 tumor-bearing mice. The class given is in vivo, nude mice. The settings on record: for gain of initial body weight: day 1 of treatment up to day 29 of inoculation. The procedure:
For the evaluation of potential adverse effects of ATT-11T, nude mice, bearing the A375 melanoma tumors and treated with ATT-11T as described above, were monitored for adverse effects immediacy after drug administration, and also twice a week, through one day after last dose. The evaluation protocol consisted of gross observation, registration of abnormal signs, and determination of body weight. Potential body weight loss (BWL) was calculated as % BWL=100−(BWdays/BWday1×100), where day 1 is the first day of treatment and day x is the day of assessment thereafter.

Data set [2] in a line: Pharmacokinetics after single intravenous administration. The settings on record: 6 mg/kg single i.v. The class given is in vivo, beagle dogs. The procedure: The stock solution was diluted 10-fold in 10% bovine serum albumin solution in 0.1M sodium phosphate buffer (pH 5.8) and mixed by vortex until a homogeneous emulsion was obtained. […] Fresh formulations of both drugs were prepared prior to each administration, and the drugs were administrated by a slow bolus injection within approximately 3 minutes, at a dose of 6 mg/kg (1.2 ml/kg), adjusted to the individual animal body weight.
Plasma was separated by centrifugation, and stored at −70° C. until HPLC analysis. WinNonlin™ software was used for the analysis of the pharmacokinetic data.

For data set [3], the system named is SW-620 colorectal carcinoma tumors. Format: in vivo, athymic nude mice. The settings on record: for tumor growth inhibition: one week after the last administration. The procedure: Drug treatment was initiated on day 11, when tumors reached an average volume of 119 mm^3 ATT-11T was administered in a vehicle comprising 5% DMSO, 5% NMP, 10% ETOH, 40% PEG-400 and 40% PG. […] The drugs were administered intraperitoneally.

The subject of data set [4] is OVCAR-3 ovarian carcinoma tumors. Briefly: Xenograft model of ovarian carcinoma. The class given is in vivo, athymic nude mice. The conditions noted are these: for growth inhibition vs. the control group: one week post last administration. An excerpt:
Tumor-bearing mice, injected only with the vehicle solution served as the control group.

The nature of data set [5]: Maximal tolerated dose (MTD). The settings on record: female, athymic nude, mouse, in vivo, ip; intraperitoneally, once a week for three weeks, nude mice; read-out: maximal tolerate dose (MTD). The procedure:
Drug treatment was initiated on day 11, when tumors reached an average volume of 119 mm^3 ATT-11T was administered in a vehicle comprising 5% DMSO, 5% NMP, 10% ETOH, 40% PEG-400 and 40% PG. […] . […] The drugs were administered intraperitoneally.

The subject of data set [6] is Mia-PaCa pancreatic carcinoma tumors. Briefly: Xenograft model of pancreatic carcinoma.
The next data set relates to H-82 SCLC tumors. Briefly: Xenograft model of small-cell lung carcinoma.
[7] abbreviates: 20 mg/kg i.v. once a week for 3 weeks.
Where [8] appears, read: 40 mg/kg i.v. once a week for 3 weeks.

Where two headings read alike, the source gives them in different places.

For `CCc1c2c(nc3ccc(OC(=O)N4CCC(CCC(C)(COC(C)(C)C)COC(C)(C)C)CC4)cc13)-c1cc3c(c(=O)n1C2)COC(=O)C3(O)CC` (centres unmarked) [ATT-11T], in the data set with A375-melanoma cells (A-375, 24 h), the IC50 stood at 3.3 µM. Also, the “Tumor volume inhibition (TVI)” value in the data set on A375 melanoma tumors (5 mg/kg i.v. twice a week for three weeks) and in the data set on A375 melanoma tumors (20 mg/kg i.v. twice a week for three weeks) was 100% in each case. Also, the figures for the “tumor growth at day 30 after the last dose” value in the data set on A375 melanoma tumors (5 mg/kg) and with A375 melanoma tumors (20 mg/kg) were “little” and “no growth”, respectively. Moreover, the growth inhibition with A375 melanoma tumors (ATT-11T 5 mg/kg i.v. three times a week for three weeks) and with A375 melanoma tumors (ATT-11T 20 mg/kg i.v. three times a week for three weeks) was 100% in each case. The “gain of initial body weight” value stood at 7% in data set [1] (5 mg/kg) and 5% in data set [1] (20 mg/kg). Further, the “tolerability (adverse effects, weight loss)” value in data set [1] (both doses, 5 and 20 mg/kg) is given as “well-tolerated”. The “plasma level of derived SN-38 at 48 hours after administration” value in [2] (dogs) was “still detectable”. Also, the “AUC of ATT-11T relative to that of CPT-11” value in [2] (dogs, parent drug) came to 4 fold. Also, in [2] (dogs, parent drug), the “increase in t1/2 of ATT-11T over CPT-11” value is given as 3.8 fold. For the same compound, the half-life in data set [2] (dog, in vivo, iv, female beagle dogs, read-out: plasma half-life (t1/2) of the parent drug (converted)) is 25.6 h. The “tumor growth 136 days post last treatment (161 days post tumor inoculation)” value in [3] (MTD 150 mg/kg i.p.) is on record as “no tumor growth”. This compound returned a tumor growth inhibition in data set [3] (MTD 150 mg/kg intraperitoneally once a week for three weeks) of 100%. The “growth inhibition vs. the control group” value in data set [4] (20 mg/kg i.v. once a week for three weeks) was 99%. The same compound registered an average tumor volume in data set [4] (20 mg/kg i.v., day 42 (21 days post last dose)) of 46 mm^3. Further, in data set [5], the maximal tolerated dose (MTD) at 3 weeks was determined as 150 mg/kg. The results for the “% tumor growth delay (% TGD) to 1,000 mm^3” value in [6] (setting [7]) and in data set [6] (setting [8]) were 86% and 152%, respectively. Besides, the results for the “days post tumor inoculation to reach average tumor volume of 1,000 mm^3” value in data set [6] (setting [7]) and in [6] (setting [8]) were 39 days and 53 days, respectively. In [6] (20 mg/kg i.v. once a week for 3 weeks, one week after the last administration), the “tumor growth inhibition (TGI)” value was found to be 48%. Moreover, the “tumor growth inhibition (TGI) vs. control tumors” value in data set [6] (40 mg/kg i.v. once a week for 3 weeks, one week after the last administration) stood at 86%. Further, the “tumor growth inhibition vs. the control group” value with H-82 SCLC tumors (40 mg/kg i.v. once a week for three weeks) is listed as 92%.

`CCc1c2c(nc3ccc(OC(=O)N4CCC(N5CCCCC5)CC4)cc13)-c1cc3c(c(=O)n1C2)COC(=O)[C@]3(O)CC` [CPT-11, irinotecan, reference compound]: in the data set on A375-melanoma cells (A-375, A375 cells, 24 hours incubation, XTT), the IC50 stood at 10.1 µM. For the same compound, the “plasma level of derived SN-38 at 24 hours after administration” value in data set [2] (dogs) is on record as “below detection level”. The same compound returned a tumor growth inhibition in [3] ([…]) of 85%. For the same compound, the “growth inhibition vs. the control group” value in [4] (18 mg/kg i.v. once a week for three weeks) came to 83%. The MTD in [5] was found to be 100 mg/kg. Besides, the “% tumor growth delay (% TGD) to 1,000 mm^3” value stood at 43% in data set [6] (18 mg/kg i.v. (equimolar to 20 mg/kg ATT-11T)) and 76% in data set [6] (36 mg/kg i.v. (equimolar to 40 mg/kg ATT-11T)). The “tumor growth inhibition (TGI) vs. control tumors” value in data set [6] (36 mg/kg i.v. once a week for 3 weeks, one week after the last administration) was 42%. Further, in the data set with H-82 SCLC tumors (36 mg/kg i.v. once a week for three weeks), the “tumor growth inhibition vs. the control group” value was found to be 67%.
